{"source": "ChEMBL document CHEMBL3751840", "about": "“Peptide-based inhibitors of protein-protein interactions” (Bioorg Med Chem Lett, 2016)", "key": {"[1]": {"target": "Tumour suppressor p53/oncoprotein Mdm2 (Homo sapiens, UniProt P04637+Q00987)", "sequence (P04637 whole entry)": "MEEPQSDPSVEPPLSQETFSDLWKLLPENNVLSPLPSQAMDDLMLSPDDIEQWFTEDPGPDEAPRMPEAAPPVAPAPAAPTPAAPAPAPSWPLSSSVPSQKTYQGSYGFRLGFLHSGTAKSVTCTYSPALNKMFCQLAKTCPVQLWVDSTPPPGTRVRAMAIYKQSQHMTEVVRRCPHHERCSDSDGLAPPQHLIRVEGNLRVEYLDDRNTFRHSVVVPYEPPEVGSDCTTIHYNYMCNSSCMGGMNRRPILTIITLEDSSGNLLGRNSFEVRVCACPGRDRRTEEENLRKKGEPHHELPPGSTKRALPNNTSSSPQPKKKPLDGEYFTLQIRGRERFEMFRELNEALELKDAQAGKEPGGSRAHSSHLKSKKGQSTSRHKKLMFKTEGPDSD", "sequence (Q00987 whole entry)": "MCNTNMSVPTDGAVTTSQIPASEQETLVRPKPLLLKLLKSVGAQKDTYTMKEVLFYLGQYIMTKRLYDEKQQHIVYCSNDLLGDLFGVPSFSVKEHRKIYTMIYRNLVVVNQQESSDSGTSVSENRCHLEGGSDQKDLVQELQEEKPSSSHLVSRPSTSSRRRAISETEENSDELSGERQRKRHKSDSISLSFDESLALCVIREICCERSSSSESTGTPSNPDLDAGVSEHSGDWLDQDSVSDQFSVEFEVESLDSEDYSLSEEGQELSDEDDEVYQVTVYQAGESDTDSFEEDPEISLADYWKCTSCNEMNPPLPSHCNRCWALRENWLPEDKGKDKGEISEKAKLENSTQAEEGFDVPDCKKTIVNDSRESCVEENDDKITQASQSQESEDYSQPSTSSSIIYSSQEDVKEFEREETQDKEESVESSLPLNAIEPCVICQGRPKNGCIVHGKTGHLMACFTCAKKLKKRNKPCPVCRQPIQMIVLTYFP", "experiment": "Inhibition of p53-HDM2 (unknown origin) interaction", "format": "protein assay"}, "Estrogen receptor": {"target": "T1, Estrogen receptor (Homo sapiens, UniProt P03372)", "T1 sequence (P03372 whole entry)": "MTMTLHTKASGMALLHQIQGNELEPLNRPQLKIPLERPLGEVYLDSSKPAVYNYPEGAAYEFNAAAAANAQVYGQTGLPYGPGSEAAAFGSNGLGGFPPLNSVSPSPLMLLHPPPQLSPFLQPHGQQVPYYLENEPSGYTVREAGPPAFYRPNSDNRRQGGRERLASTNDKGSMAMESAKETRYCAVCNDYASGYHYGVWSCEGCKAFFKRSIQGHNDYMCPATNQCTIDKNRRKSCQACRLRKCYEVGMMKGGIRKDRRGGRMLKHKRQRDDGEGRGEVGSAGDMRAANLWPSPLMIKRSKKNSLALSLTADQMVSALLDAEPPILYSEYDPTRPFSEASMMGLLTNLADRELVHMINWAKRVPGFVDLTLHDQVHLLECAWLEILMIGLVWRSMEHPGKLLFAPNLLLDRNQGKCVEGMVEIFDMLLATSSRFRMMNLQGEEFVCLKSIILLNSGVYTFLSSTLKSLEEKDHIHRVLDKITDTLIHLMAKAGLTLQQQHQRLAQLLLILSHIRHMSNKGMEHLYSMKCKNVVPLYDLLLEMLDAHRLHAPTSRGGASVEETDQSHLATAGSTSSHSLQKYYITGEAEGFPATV", "experiment": "Binding affinity to ERalpha (unknown origin)"}, "Bcl-2-like protein 1": {"target": "Bcl-2-like protein 1 (Homo sapiens, UniProt Q07817)", "sequence (Q07817 whole entry, the tested form may be a part)": "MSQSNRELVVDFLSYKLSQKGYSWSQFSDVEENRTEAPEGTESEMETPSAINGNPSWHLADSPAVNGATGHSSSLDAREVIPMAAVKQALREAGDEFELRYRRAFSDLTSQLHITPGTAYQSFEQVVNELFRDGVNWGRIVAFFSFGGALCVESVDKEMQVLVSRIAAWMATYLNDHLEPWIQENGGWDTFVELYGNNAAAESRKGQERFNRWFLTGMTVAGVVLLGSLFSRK", "experiment": "Inhibition of BCL-xL-BH3 domain (unknown origin) interaction"}, "[2]": {"target": "E3 ubiquitin-protein ligase Mdm2 (Homo sapiens, UniProt Q00987)", "sequence (Q00987 whole entry)": "as the sequence (Q00987 whole entry) above", "experiment": "Binding affinity to MDM2 (unknown origin)"}, "[3]": {"target": "Menin/Histone-lysine N-methyltransferase MLL (Homo sapiens, UniProt O00255+Q03164)", "experiment": "Inhibition of menin-MLL (unknown origin) interaction", "format": "protein assay"}}, "note": "Starred links: 1 amine or outer side, 2 acyl side, 3 side chain; linkers in the order of their positions; H or OH if unused. Positions of bridges follow the written chain, without caps; N, C: chain ends. Non-standard residues stand in square brackets, D forms with d. Residues, ends and D or L forms follow the SMILES beside them. X1 = O=C([C@H]1CNC[C@@H]1N[*:1])[*:2]; X2 = O=C([C@H]1CCC[C@@H]1N[*:1])[*:2]"}
{"smiles": "CC(C)C[C@@H]1NC(=O)[C@H](Cc2c[nH]c3ccc(Cl)cc23)NC(=O)[C@H](CCC(=O)O)NC(=O)[C@H](Cc2ccccc2)NC(=O)[C@@H]2CCCN2C(=O)[C@H]2CCCN2C(=O)[C@H](Cc2ccccc2)NC(=O)[C@H](CCC(=O)O)NC(=O)[C@H](Cc2c[nH]c3ccccc23)NC(=O)[C@H](CC(=O)O)NC1=O", "values": [{"measurement": "IC50", "setting": "[1]", "result": 0.14, "unit": "µM"}]}
{"smiles": "CC(C)CCN(CC(=O)N(CCS(N)(=O)=O)CC(=O)N(CC(N)=O)Cc1ccc([N+](=O)[O-])cc1)C(=O)CN(CCCP(=O)(O)O)C(=O)CN(Cc1ccc([N+](=O)[O-])cc1)C(=O)CN(CCc1c[nH]c2ccccc12)C(=O)CN(CCCCP(=O)(O)O)C(=O)CN(Cc1ccc([N+](=O)[O-])cc1)C(=O)CN(CCc1ccccc1)C(=O)CNCc1ccc([N+](=O)[O-])cc1", "values": [{"measurement": "IC50", "setting": "[1]", "result": 6.6, "unit": "µM"}]}
{"smiles": "CC(=O)N[C@@H](Cc1cnc[nH]1)C(=O)N[C@@H](CCCCN)C(=O)N[C@@]1(C)CCCCCCCC[C@@](C)(C(=O)N[C@@H](CC(C)C)C(=O)N[C@@H](CCC(N)=O)C(=O)N[C@@H](CC(=O)O)C(=O)N[C@@H](CO)C(N)=O)NC(=O)[C@H](CCC(N)=O)NC(=O)[C@H](Cc2cnc[nH]2)NC(=O)[C@H](CC(C)C)NC1=O", "values": [{"measurement": "Kd", "setting": "Estrogen receptor", "result": 0.352, "unit": "µM"}]}
{"smiles": "CC(=O)N[C@H]1CNC[C@@H]1C(=O)N[C@@H](C)C(=O)N[C@H]1CCC[C@@H]1C(=O)N[C@@H](CCCNC(=N)N)C(=O)N[C@H]1CCC[C@@H]1C(=O)N[C@@H](CC(C)C)C(=O)N[C@H]1CCC[C@@H]1C(=O)N[C@@H](CCCCN)C(=O)N[C@@H](CC(C)C)C(=O)NCC(=O)N[C@@H](CC(=O)O)C(=O)N[C@@H](C)C(=O)N[C@@H](Cc1ccccc1)C(=O)N[C@@H](CC(N)=O)C(=O)N[C@@H](CCCNC(=N)N)C(N)=O", "note": "(Ac-[X1]A[X2]R[X2]L[X2]KLGDAFNR-NH2)", "values": [{"measurement": "Ki", "setting": "Bcl-2-like protein 1", "result": 0.002, "unit": "µM"}]}
{"smiles": "CC(C)C[C@H](NC(=O)[C@@H]1CSSC[C@H](N)C(=O)N[C@@H](CC(N)=O)C(=O)N[C@H]2CSSC[C@H](NC(=O)[C@H](CC(C)C)NC(=O)[C@H](Cc3ccccc3)NC(=O)[C@H]([C@@H](C)O)NC(=O)[C@H](CCC(=O)O)NC(=O)[C@@H]3CCCN3C(=O)[C@H](C)NC(=O)[C@H](CCCCN)NC2=O)C(=O)N[C@@H](Cc2ccc(O)cc2)C(=O)N[C@@H](Cc2c[nH]c3ccccc23)C(=O)N[C@@H](CCCNC(=N)N)C(=O)N1)C(=O)N[C@@H](CCC(N)=O)C(=O)N[C@@H](Cc1cnc[nH]1)C(N)=O", "note": "(H-CNCKAPETFLCYWRCLQH-NH2; disulfide 1-15, 3-11)", "values": [{"measurement": "Kd", "setting": "[2]", "result": 17.7, "unit": "µM"}]}
{"smiles": "CC(=O)N[C@@H](CCCNC(=N)N)C(=O)N[C@@H](Cc1c[nH]c2ccccc12)C(=O)NC1CCCCCCCNC(=O)[C@@H]2CCCN2C(=O)[C@H](CCCNC(=N)N)NC(=O)[C@H](C)NC(=O)[C@@H]2CCCN2C(=O)C(Cc2ccccc2)NC1=O", "note": "(single isomer, unassigned)", "values": [{"measurement": "Ki", "setting": "[3]", "result": 0.0238, "unit": "µM"}]}
